Results on 31 compounds are retold here after US20260226026A1, “COMPOUND AS CTPS1 INHIBITOR” (Hangzhou Innogate Pharma Co., Ltd., priority 2023, published 2026).

Some results are limits rather than exact numbers.

System in one data set: not listed separately
The experiment in a line: in vivo. Also noted: species or system SD rats. The settings on record: male, SD, rat, po, 2 mg/kg. Here is the method:
Instrumentation: SCIEX Triple Quad 6500+ triple quadrupole liquid chromatography-mass spectrometry system (LC-MS/MS), operating software is Analyst 1.7.2 (Applied Biosystems, USA); ExionLC liquid chromatography system; Microsoft Excel was used for data calculation and processing. Pharmacokinetic parameters were calculated using the statistical moment method with WinNonlin 8.2 software. Key kinetic parameters included Tmax, T1/2, Cmax, AUC0-24 h etc. Column: Synergi 4 μm Fusion-RP 80 Å Luna C18 2 mm*50 mm, 4 μm; Column temperature: 40° C.; Mobile phase A: Water (0.1% formic acid); Mobile phase B: Acetonitrile; Flow rate: 0.8 mL/min; Gradient elution is adopted, the elution gradient is 0.10 min: 15% B; 1.60 min: 95% B; 1.90 min: 95% B; 1.91 min: 15% B; 2.20 min: 15% B. Injection volume: 1 μL.
Animals: 3 male SD rats with a weight range of 200-220 g were purchased and kept in the laboratory of the Experimental Animal Center for 3 days and then used. They were fasted for 12 hours predose and 4 hours after dosing. Drinking water was free during the test. After the rats were gavage, blood samples were taken according to the established time point.
Solvent: 0.4% ethanol+0.4% Tween80+99.2% (0.5% methylcellulose M450). Preparation of the solution for intragastric administration: Compounds were accurately weighed and added to the solvent. The mixture was then subjected to vortex mixing and sonication until a homogeneous suspension was achieved, thereby preparing medicinal solutions of the desired concentrations.
Compound samples: Typically, multiple structurally analogous compounds (with molecular weights differing by more than 2 units) were accurately weighed and administered together (cassette PK). This approach allows for the simultaneous screening of multiple compounds and comparison of their oral absorption rates. Single compound administration was also employed to study the pharmacokinetics of drug samples in rats.
After intragastric administration, blood was collected from the jugular vein at 0.25, 0.5, 1, 2, 4, 8, 10 and 24 hours. Transfer 20 μL of plasma sample (for blank samples and internal standard blank samples, add 20 μL of blank plasma) to a 1.5 mL centrifuge tube, add 200 μL of internal standard solution (50% methanol in acetonitrile (concentration 100 ng/mL)) (for Double blank samples, add 200 μL of 50% methanol in acetonitrile solution). Vortex the samples for 5 minutes, then centrifuge at 14000 rpm and 4° C. for 5 minutes. Transfer 80 μL and add to 80 μL of water, mix uniformly, and submit for LC-MS/MS analysis.
The compounds were accurately weighed to prepare different concentrations, and quantitative analysis on mass spectrometry was performed to establish a standard curve, and then the concentration of the above-mentioned compound in the plasma was tested to obtain its concentration at different time points. All measurement data were collected and processed by relevant software, and the statistical moment method was used to calculate the pharmacokinetic parameters (mainly including kinetic parameters Tmax, T1/2, Cmax, AUC0-24 h etc).
Broadly, the AUC(0-t) is the area under the concentration-time curve up to a stated or last time point. The term Cmax denotes the peak of the concentration-time curve. The Tmax is the time from dosing to the highest level. In general, half-life refers to how long it takes for the measured level to halve. Turning to `CCOc1cncc(-c2ccc(NC(=O)C3(c4ccnc(NS(=O)(=O)C5CC5)n4)CCC(=C(C)C4COC4)CC3)nc2)n1` (stereo not shown) [Compound 51], the AUC(0-t) is 62.7 ng·h/mL, the Cmax turned out to be 14.5 ng/mL, the Tmax amounted to 4 h and the half-life is 1.56 h.

The same data set, now with this note: male, SD, rat, po, 3 mg/kg.
Take `CCOc1cncc(-c2ccc(NC(=O)C3(c4ccnc(NS(=O)(=O)C5CC5)n4)CCC(=CCO)CC3)nc2)n1` (stereo not shown) [Compound 5]: the AUC(0-t) amounted to 417 ng·h/mL, the Cmax is 359 ng/mL, the Tmax amounted to 0.25 h and the half-life was 1.73 h.

For a further data set, the system named is Jurkat cells. The experiment in a line: Inhibition of Jurkat cell proliferation (CellTiter-Glo, 72 hours). It counts as cell-based. The settings on record: Homo sapiens; Jurkat cells, 72 hours, CellTiter-Glo; read-out: Jurkat (IC50). The method, then:
Select Jurkat cells in good growth condition and digest them with trypsin. Add fresh culture medium, mix thoroughly, and centrifuge at 1000 rpm for 5 minutes. Seed the cells into a 96-well plate at a density of 10,000 cells per well, and incubate overnight in a 37° C. incubator. On the following day, take out of the culture plate and treat the cells with compounds prepared in a five-fold serial dilution. Return the plate to the 37° C. incubator and continue incubation for 72 hours.
After incubation, bring out the cell culture plate and equilibrate it to room temperature. Add 100 μL of CellTiter-Glo reagent to each well, shake in the dark for 2 minutes, and incubate for 10 minutes. Measure the luminescence using an Enspire plate reader. Calculate the inhibition rate using the following formula: Inhibition rate (%)=(1−(RLU_compound−RLU_blank)/(RLU_DMSO−RLU_blank))×100%. Plot the dose-response curve and calculate the IC50 value using XLFit.
(In general: ATP-based viability assays read luminescence as a measure of living cells.)
A word on the IC50: it is the concentration at which inhibition is half-maximal. Regarding `CCOc1cncc(-c2ccc(NC(=O)C3(c4ccnc(NS(=O)(=O)C5CC5)n4)CCC(=CCOC)CC3)nc2)n1` (single isomer, unassigned) [Compound 18], the IC50 is under 50 nM. For the compound `CCOc1cncc(-c2ccc(NC(=O)C3(c4ccnc(NS(=O)(=O)C5CC5)n4)CCC(=CCO)CC3)nc2)n1` (stereo not shown) [Compound 5], the IC50 is under 15 nM. Turning to `CCOc1cncc(-c2ccc(NC(=O)C3(c4ccnc(N(C)S(=O)(=O)C5CC5)n4)CCC(=CCO)CC3)nc2)n1` (stereo not shown) [Compound 6], the 50% inhibitory concentration (IC50) is under 100 nM. Turning to `O=C(Nc1ccc(-c2cncc(OC3CC(=C(F)F)C3)n2)cn1)C1(c2ccnc(NS(=O)(=O)C3CC3)n2)CCOCC1` (stereo not shown) [Compound 7], the IC50 was under 750 nM.

Regarding `C=C1CCC(C(=O)Nc2ccc(-c3cncc(OCC)n3)cn2)(c2ccnc(NS(=O)(=O)C3CC3)n2)CC1` [Compound 9], the IC50 was under 50 nM. Take `CCOc1cncc(-c2ccc(NC(=O)C3(c4ccnc(NS(=O)(=O)C5CC5)n4)CCC(=CCOC)CC3)nc2)n1` (stereo not shown) [Compound 17]: the half-maximal inhibitory concentration (IC50) is under 200 nM.

With `CCOc1cncc(-c2ccc(NC(=O)C3(c4ccnc(NS(=O)(=O)C5CC5)n4)CC(=CF)C3)nc2)n1` (stereo not shown) [Compound 20], the IC50 was under 200 nM. With `CCOc1cncc(-c2ccc(NC(=O)C3(c4ccnc(NS(=O)(=O)C5CC5)n4)CCC(=CCc4ccccc4)CC3)nc2)n1` (stereo not shown) [Compound 21], the IC50 was under 1000 nM. In the case of `CCOc1cncc(-c2ccc(NC(=O)C3(c4ccnc(NS(=O)(=O)C5CC5)n4)CCN(c4cccnc4)CC3)nc2)n1` [Compound 25], the concentration for half-maximal inhibition (IC50) was under 30 nM.

Regarding `CCOc1cncc(-c2ccc(NC(=O)C(=C3CCOCC3)c3ccnc(NS(=O)(=O)C4CC4)n3)nc2)n1` [Compound 33], the 50% inhibitory concentration (IC50) is under 1000 nM. Turning to `CCOc1cncc(-c2ccc(NC(=O)C3(c4ccnc(NS(=O)(=O)C5CC5)n4)CCN(c4ccncc4)CC3)nc2)n1` [Compound 35], the IC50 is under 200 nM.

For the compound `CCOc1cncc(-c2ccc(NC(=O)C3(c4ccnc(NS(=O)(=O)C5CC5)n4)CCC(=Cc4ccccn4)CC3)nc2)n1` (stereo not shown) [Compound 38], the IC50 is under 30 nM. For `CCOc1cncc(-c2ccc(NC(=O)C3(c4ccnc(NS(=O)(=O)C5CC5)n4)CCC(=CC(N)=O)CC3)nc2)n1` (stereo not shown) [Compound 40], the IC50 is under 200 nM. Regarding `CCOc1cncc(-c2ccc(NC(=O)C3(c4ccnc(NS(=O)(=O)C5CC5)n4)CCC(=CCN)CC3)nc2)n1` (stereo not shown) [Compound 41], the IC50 was under 100 nM. On to `CCOc1cncc(-c2ccc(NC(=O)C3(c4ccnc(NS(=O)(=O)C5CC5)n4)CCC(=Cc4ccoc4)CC3)nc2)n1` (stereo not shown) [Compound 42], for which the IC50 is under 50 nM.

`CCOC(=O)C(F)=C1CCC(C(=O)Nc2ccc(-c3cncc(OCC)n3)cn2)(c2ccnc(NS(=O)(=O)C3CC3)n2)CC1` (stereo not shown) [Compound 43]: the IC50 is under 50 nM.

Turning to `CCOc1cncc(-c2ccc(NC(=O)C3(c4ccnc(NS(=O)(=O)C5CC5)n4)CCC(=C(F)C#N)CC3)nc2)n1` (stereo not shown) [Compound 49], the IC50 was under 50 nM. `CCOc1cncc(-c2ccc(NC(=O)C3(c4ccnc(NS(=O)(=O)C5CC5)n4)CCC(=C(C)C4COC4)CC3)nc2)n1` (stereo not shown) [Compound 51]: the IC50 was under 30 nM.

For `CCOc1cncc(-c2ccc(NC(=O)C3(c4ccnc(NS(=O)(=O)C5CC5)n4)CCC(=Cc4ccsc4)CC3)nc2)n1` (stereo not shown) [Compound 53], the IC50 was under 100 nM.

As to `CCOc1cncc(-c2ccc(NC(=O)C3(c4ccnc(NS(=O)(=O)C5CC5)n4)CCC(=Cc4cncnc4)CC3)nc2)n1` (stereo not shown) [Compound 56], the IC50 was under 50 nM. Regarding `CCOc1cncc(-c2ccc(NC(=O)C3(c4ccnc(NS(=O)(=O)C5CC5)n4)CCC(=CC(C)(C)O)CC3)nc2)n1` (stereo not shown) [Compound 57], the IC50 was under 50 nM.

As for `CCOc1cncc(-c2ccc(NC(=O)C3(c4ccnc(NS(=O)(=O)C5CC5)n4)CCC(=CC4CC(O)C4)CC3)nc2)n1` (stereo not shown) [Compound 59], the IC50 is under 15 nM. As to `CCOc1cncc(-c2ccc(NC(=O)C3(c4ccnc(NS(=O)(=O)C5CC5)n4)CCC(=CC(C)=O)CC3)nc2)n1` (stereo not shown) [Compound 60], the IC50 was under 30 nM.

As for `CCOc1cncc(-c2ccc(NC(=O)C3(c4ccnc(NS(=O)(=O)C5CC5)n4)CCC(=C(F)C(C)=O)CC3)nc2)n1` (stereo not shown) [Compound 61], the IC50 is under 50 nM.

Turning to `CCOc1cncc(-c2ccc(NC(=O)C3(c4ccnc(NS(=O)(=O)C5CC5)n4)CCC4(CC3)CC(=C(F)F)C4)nc2)n1` (stereo not shown) [Compound 64], the IC50 is under 50 nM. Regarding `CCOc1cncc(-c2ccc(NC(=O)C3(c4ccnc(NS(=O)(=O)C5CC5)n4)CCC(=C(F)F)CC3)c(F)c2)n1` (stereo not shown) [Compound 65], the IC50 is under 50 nM. Take `CCOc1cncc(-c2ccc(NC(=O)C3(c4nccc(NS(=O)(=O)C5CC5)n4)CCC(=C(F)F)CC3)nc2)n1` (stereo not shown) [Compound 66]: the IC50 is under 50 nM.

For the compound `CCOc1cncc(-c2cnc(NC(=O)C3(c4ccnc(NS(=O)(=O)C5CC5)n4)CCC(=C(F)F)CC3)c(F)c2)n1` (stereo not shown) [Compound 71], the IC50 was under 200 nM. Consider `CCOc1cncc(-c2cnc(C(=O)NC3(c4ccnc(NS(=O)(=O)C5CC5)n4)CCC(=C(F)F)CC3)s2)n1` (stereo not shown) [Compound 72], for which the IC50 was under 200 nM. Same read-out and setting: next, `CCOc1cncc(-c2ccc(NC(=O)C3(c4csc(NS(=O)(=O)C5CC5)n4)CCC(=C(F)F)CC3)nc2)n1` (stereo not shown) [Compound 73]: under 30 nM.

The next data set concerns the target T1, hCTPS1 enzyme (Homo sapiens, UniProt P17812).
T1 sequence (P17812 1-591): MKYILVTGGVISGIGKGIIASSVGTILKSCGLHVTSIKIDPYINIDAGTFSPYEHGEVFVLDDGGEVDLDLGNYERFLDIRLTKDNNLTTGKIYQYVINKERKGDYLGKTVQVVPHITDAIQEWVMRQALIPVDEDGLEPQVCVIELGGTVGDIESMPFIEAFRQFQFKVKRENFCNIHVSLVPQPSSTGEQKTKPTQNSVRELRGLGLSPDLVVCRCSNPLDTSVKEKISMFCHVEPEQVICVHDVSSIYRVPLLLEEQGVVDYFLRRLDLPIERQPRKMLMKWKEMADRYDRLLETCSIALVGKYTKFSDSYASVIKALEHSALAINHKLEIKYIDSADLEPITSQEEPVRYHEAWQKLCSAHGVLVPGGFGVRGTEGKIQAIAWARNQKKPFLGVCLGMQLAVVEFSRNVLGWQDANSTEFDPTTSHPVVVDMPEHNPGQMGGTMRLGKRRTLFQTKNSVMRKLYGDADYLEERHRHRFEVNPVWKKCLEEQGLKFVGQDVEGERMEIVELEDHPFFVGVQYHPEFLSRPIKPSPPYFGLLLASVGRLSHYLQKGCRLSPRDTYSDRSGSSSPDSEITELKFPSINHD
Kind of data set: Inhibition of CTPS1 enzyme activity (ADP-Glo method). It counts as biochemical. The conditions noted are these: hCTPS1, 90 min reaction at 25° C. Here is the method: The enzyme activity of CTPS1 was tested using the ADP-Glo method. Compounds were serially diluted in DMSO with 3-fold gradients across ten concentrations. Transfer 0.1 μL of diluted compound to a 384-well plate, centrifuge at 1000 rpm for 1 min. Add 2.5 μL of hCTPS1 enzyme working solution, centrifuge at 1000 rpm for 1 min, and incubate at 25° C. for 10 min. Add 2.5 μL of ATP & UTP solution and incubate at 25° C. for 10 min. Add 5 μL of substrate solution to initiate the reaction and incubate at 25° C. for 90 min. Add 10 μL of ADP-Glo solution to the 384-well plate, centrifuge at 1000 rpm for 1 min, incubate at 25° C. for 40 min, add 20 μL of detection solution, centrifuge at 1000 rpm for 1 min, and incubate at 25° C. for 60 min. […] were read using a BMG microplate reader. Inhibition rate (%) was calculated as follows: Inhibition rate (%)=[(DMSO control well signal−Compound well signal)/(DMSO control well signal−Blank control well signal)]×100%. IC50 values for compounds were analyzed by nonlinear regression in XLFit 5.5.0 software using the formula: Y=Bottom+(Top−Bottom)/(1+10^((LogIC50−X)*HillSlope)) where Y is the inhibition rate and X is the log value of compound concentration.
Compound `CCOc1cncc(-c2ccc(NC(=O)C3(c4ccnc(NS(=O)(=O)C5CC5)n4)CCC(=CCOC)CC3)nc2)n1` (single isomer, unassigned) [Compound 18] had an IC50 of under 50 nM. Same read-out and setting: next, `CCOc1cncc(-c2ccc(C(=O)NC3(c4ccnc(NS(=O)(=O)C5CC5)n4)CCC(=C(F)F)CC3)nc2)n1` (stereo not shown) [Compound 70]: under 200 nM.
